Measurements as given in article PMC8231400, “Synthesis, biological evaluation and molecular docking investigation of new sulphonamide derivatives bearing naphthalene moiety as potent tubulin polymerisation inhibitors” (Journal of Enzyme Inhibition and Medicinal Chemistry, 2021).

What was measured:
[1] = system: MCF-7 human breast cancer cells; assay: In vitro antiproliferative assay (CCK-8), MCF-7; assay type: cell-based; conditions: CCK-8, 48 h, mean of three experiments
Description: (§1) In vitro antiproliferative assay 179 Human breast cancer cell line (MCF -7) and human non-small cell lung 180 carcinoma cell line (A549) were used to determine the antiproliferative of 181 the test compounds by CCK -8 assay. The cells were cultured in RPMI 182 media with 10% fetal bovine serum at 37 °C and 5% CO2 in a humidify 183 environment. In a word, cells were seeded in 96 -well plates 184 (1×10^5 cells/well) and cultured for overnight. […] Finally, 186 cell viability was determined by the CCK -8 method. 187 1.3. […] 190 EGTA) with 1 mM GTP and 5% glycerol. Then the plate was 191 immediately transferred to the spectrophotometer and microtubule 192 polymerization was monitored under 340 nm at 37 °C every 1 min over 193 20 min. […] 196 then the cells were treated with different concentrations of compound 5c 7

[2] = system: A549 human non-small cell lung carcinoma cells; assay: In vitro antiproliferative assay (CCK-8), A549; assay type: cell-based; conditions: CCK-8, 48 h, mean of three experiments
Description: as §1

[3] = Cytotoxicity against human normal liver cell line; assay type: cell-based; conditions: LO2 normal liver cells
MCF-7 cancer cells [4] = assay: Cell cycle assay by flow cytometry (PI); assay type: cell-based, human; conditions: 24 h
Description: Due to microtubules play an important role in eukaryotic cell division, tubulin polymerisation inhibitors can disrupt regulated cell cycle distribution and block the cell cycle in G2/M phase [21]^,[29]. Therefore, the effect of compound 5c on the cell cycle of MCF-7 cancer cells was evaluated by using flow cytometry. […] 172 51.01, 56.22, 60.63, 107.33, 125.00, 125.21, 125.24, 127.40, 128.17, […] HRMS (ESI) calcd for [M+Na] + 175 C26H24N2NaO7S+: 531.1196 found 531.1162. Elemental analysis for 176 C26H24N2O7S: C, 61.41; H, 4.76; N, 5.51; S, 6.30 found C, 61.52; H, 177 4.702; N, 5.21; S, 6.100. […] In vitro antiproliferative assay 179 Human breast cancer cell line (MCF -7) and human non-small cell lung 180 carcinoma cell line (A549) were used to determine the antiproliferative of 181 the test compounds by CCK -8 assay. The cells were cultured in RPMI 182 media with 10% fetal bovine serum at 37 °C and 5% CO2 in a humidify 183 environment. In a word, cells were seeded in 96 -well plates 184 (1×10^5 cells/well) and cultured for overnight. After incubation, the cells 185 were treated with test compounds and positive control for 48 h. Finally, 186 cell viability was determined by the CCK -8 method. 187 1.3. In vitro tubulin polymerization inhibitory assay 188 Tubulin protein was mixed with different concentrations of compound 5c […] 190 EGTA) with 1 mM GTP and 5% glycerol. Then the plate was 191 immediately transferred to the spectrophotometer and microtubule 192 polymerization was monitored under 340 nm at 37 °C every 1 min over 193 20 min. […] Cell cycle assay 195 MCF-7 cells were seeded into 6-well plates and incubated for 24 h, and 196 then the cells were treated with different concentrations of compound 5c 7 page 8: 197 for 24 h. After incubation, the cells were harvested by centrifugation, and 198 fixed in ice-cold 70% ethanol overnight. After removed the ethanol, the 199 cells were incubated with RNase and propidium iodide. Finally, the 200 samples were analyzed by flow cytometry. 201 1.5. Cell apoptosis assay […] 203 then the cells were treated with different concentrations of compound 5c 204 for 24 h. Subsequently, the cells were incubated with Annexin-V/FITC 205 binding buffer and PI staining solution at room temperature. Finally, the 206 stained cells were analyzed using flow cytometry. 207 1.6. Molecular docking 208 Molecular docking studies were performed to investigate the binding […] The 210 three-dimensional (3D) coordinate of tubulin (PDB ID: 1SA0) was 211 downloaded from Protein Data Bank (www.rcsb.org). The 3D structure of 212 the compounds was obtained by ChemBioDraw Ultra 14.0 and 213 ChemBio3D Ultra 14.0 softwares. The AutoDockTools 1.5.6 package was 214 employed to generate the docking input files. The search grid of tubulin 215 was identified as center_x: 118.921, center_y: 89.718, and center_z: 216 5.932 with dimensions size_x: 15, size_y: 15, and size_z: 15. The value 217 of exhaustiveness was set to 20. For Vina docking, the default parameters 218 were used if it was not mentioned. The best-scoring pose as judged by the 219 Vina docking score was chosen and visually analyzed using PyMoL 1.7.6 220 software (www.pymol.org). 221 1.7 Molecular dynamics 222 The Amber 12 1-3 and AmberTools 13 programs were used for MD 223 simulations of the selected docked pose. MBPPS was first prepared by 224 ACPYPE 4, a tool based on ANTECHAMBER 5, 6 for generating 8

tubulin = assay: In vitro tubulin polymerisation inhibitory assay (absorbance 340 nm); assay type: biochemical; conditions: 37 °C, 20 min, read-out: IC50 tubulin polymerisation inhibition
Description: In vitro antiproliferative assay 179 Human breast cancer cell line (MCF -7) and human non-small cell lung 180 carcinoma cell line (A549) were used to determine the antiproliferative of 181 the test compounds by CCK -8 assay. The cells were cultured in RPMI 182 media with 10% fetal bovine serum at 37 °C and 5% CO2 in a humidify 183 environment. In a word, cells were seeded in 96 -well plates 184 (1×10^5 cells/well) and cultured for overnight. […] Finally, 186 cell viability was determined by the CCK -8 method. 187 1.3. […] 190 EGTA) with 1 mM GTP and 5% glycerol. Then the plate was 191 immediately transferred to the spectrophotometer and microtubule 192 polymerization was monitored under 340 nm at 37 °C every 1 min over 193 20 min.

MCF-7 cancer cells [5] = assay: Annexin V-FITC/PI cell apoptosis assay; assay type: cell-based, human; design: Q1 quadrant / Q2 quadrant (upper right, late apoptotic cells) / Q4 quadrant / Q3 quadrant (lower right, early apoptotic cells): unit not given here; conditions: 24 h
Description: Since many literatures have reported that tubulin polymerisation inhibitors are able to induce cellular apoptosis [22]^,[30], the Annexin V-FITC/PI assay was carried out to examine the influence of compound 5c on cell apoptosis in MCF-7 cancer cells. […]
201 1.5. Cell apoptosis assay
203 then the cells were treated with different concentrations of compound 5c
204 for 24 h. Subsequently, the cells were incubated with Annexin-V/FITC
205 binding buffer and PI staining solution at room temperature. Finally, the
206 stained cells were analyzed using flow cytometry.
207 1.6. […]

In the case of `O=c1[nH]cc(F)c(=O)[nH]1` [5-Fu, 5-fluorouracil, reference compound], the IC50 ([1]; Homo sapiens, MCF7) is reported as 11.6 ± 0.6 µM and the IC50 ([2]; Homo sapiens, A549) is reported as 2.75 ± 0.31 µM.
In the case of `COc1cc(N(Cc2cccc(Br)c2)S(=O)(=O)c2cccc3ccccc23)cc(OC)c1OC` [8f], the IC50 ([1]; Homo sapiens, MCF7) is reported as greater than 30 µM and the IC50 ([2]; Homo sapiens, A549) is reported as greater than 30 µM.
In the case of `COc1ccc(CN(c2cc(OC)c(OC)c(OC)c2)S(=O)(=O)c2ccc(C)cc2)cc1` [5a], the IC50 ([1]; Homo sapiens, MCF7) is reported as 3.64 ± 0.25 µM and the IC50 ([2]; Homo sapiens, A549) is reported as 5.34 ± 0.31 µM.
For `COc1ccc(CN(c2cc(OC)c(OC)c(OC)c2)S(=O)(=O)c2ccc(OC)cc2)cc1` [5e], the IC50 ([1]; Homo sapiens, MCF7) was 0.87 ± 0.05 µM and the IC50 ([2]; Homo sapiens, A549) was 0.62 ± 0.04 µM.
Molecule `COc1ccc(/C=C\c2cc(OC)c(OC)c(OC)c2)cc1O` [CA-4, combretastatin A-4, reference compound] has an IC50 ([1]; Homo sapiens, MCF7) of 5.55 ± 0.11 µM and an IC50 ([2]; Homo sapiens, A549) of 0.029 ± 0.004 µM.
Work on `COc1cc(N(Cc2ccc(Br)cc2)S(=O)(=O)c2cccc3ccccc23)cc(OC)c1OC` [8d] yielded an IC50 ([1]; Homo sapiens, MCF7) of 8.02 ± 0.58 µM and an IC50 ([2]; Homo sapiens, A549) greater than 30 µM.
In the case of `COc1ccc(CN(c2cc(OC)c(OC)c(OC)c2)S(=O)(=O)c2cccc3ccccc23)cc1` [5c], the IC50 ([1]; Homo sapiens, MCF7) is reported as 0.51 ± 0.03 µM, the IC50 [3] is reported as 12.7 ± 3.26 µM and the IC50 ([2]; Homo sapiens, A549) is reported as 0.33 ± 0.01 µM. The G1 population (MCF-7 cancer cells [4]; MCF-7, 0.125 μM) was 44.63%, the G2/M population (MCF-7 cancer cells [4]; MCF-7, 0.125 μM) was 30.77% and the S population (MCF-7 cancer cells [4]; MCF-7, 0.125 μM) was 24.59%. The G1 population (MCF-7 cancer cells [4]; MCF-7, 0.25 μM) was 6.61%, the G2/M population (MCF-7 cancer cells [4]; MCF-7, 0.25 μM) was 57.50% and the S population (MCF-7 cancer cells [4]; MCF-7, 0.25 μM) was 35.89%. It also gave a G2/M population (MCF-7 cancer cells [4]; MCF-7, 0.5 µM) of 82.22%, a G1 population (MCF-7 cancer cells [4]; MCF-7, 0.50 μM) of 6.89% and a S population (MCF-7 cancer cells [4]; MCF-7, 0.50 μM) of 10.89%. The IC50 (tubulin) was 2.8 µM, the Q1 quadrant (MCF-7 cancer cells [5]; MCF-7, 0.125 μM) was 0.88 and the “Q2 quadrant (upper right, late apoptotic cells)” value (MCF-7 cancer cells [5]; MCF-7, 0.125 μM) was 11.3. The “Q3 quadrant (lower right, early apoptotic cells)” value (MCF-7 cancer cells [5]; MCF-7, 0.125 μM) was 7.37, the Q4 quadrant (MCF-7 cancer cells [5]; MCF-7, 0.125 μM) was 80.4 and the “total numbers of early and late apoptotic cells” value (shortened to “total numbers”) (MCF-7 cancer cells [5]; MCF-7, 0.125 μM) was 18.67%. For the same molecule, the Q1 quadrant (MCF-7 cancer cells [5]; MCF-7, 0.25 μM) was 0.77, the “Q2 quadrant (upper right, late apoptotic cells)” value (MCF-7 cancer cells [5]; MCF-7, 0.25 μM) was 12.6 and the “Q3 quadrant (lower right, early apoptotic cells)” value (MCF-7 cancer cells [5]; MCF-7, 0.25 μM) was 20.5. The Q4 quadrant (MCF-7 cancer cells [5]; MCF-7, 0.25 μM) was 66.1, the “total numbers” value (MCF-7 cancer cells [5]; MCF-7, 0.25 μM) was 33.1% and the “total numbers” value (MCF-7 cancer cells [5]; MCF-7, 0.5 µM) was 50.3%. The Q1 quadrant (MCF-7 cancer cells [5]; MCF-7, 0.50 μM) was 0.58, the “Q2 quadrant (upper right, late apoptotic cells)” value (MCF-7 cancer cells [5]; MCF-7, 0.50 μM) was 17.7 and the “Q3 quadrant (lower right, early apoptotic cells)” value (MCF-7 cancer cells [5]; MCF-7, 0.50 μM) was 32.6. For the same molecule, the Q4 quadrant (MCF-7 cancer cells [5]; MCF-7, 0.50 μM) was 49.2.
`COc1ccc(CN(c2cc(OC)c(OC)c(OC)c2)S(=O)(=O)c2ccccc2)cc1` [5b] showed an IC50 ([1]; Homo sapiens, MCF7) greater than 30 µM and an IC50 ([2]; Homo sapiens, A549) greater than 30 µM.
With `COc1cc(N(Cc2ccc(F)cc2)S(=O)(=O)c2cccc3ccccc23)cc(OC)c1OC` [8g] the IC50 ([1]; Homo sapiens, MCF7) was greater than 30 µM and the IC50 ([2]; Homo sapiens, A549) was greater than 30 µM.
`COc1cc(N(Cc2cccc(F)c2)S(=O)(=O)c2cccc3ccccc23)cc(OC)c1OC` [8c] gave an IC50 ([1]; Homo sapiens, MCF7) greater than 30 µM and an IC50 ([2]; Homo sapiens, A549) greater than 30 µM.
`N.N.[Cl][Pt][Cl]` [Cisplatin, reference compound] gave an IC50 [1] of 11.2 ± 0.75 µM and an IC50 [2] of 4.92 ± 0.46 µM.
Work on `COc1cc(N(Cc2ccc(C#N)cc2)S(=O)(=O)c2cccc3ccccc23)cc(OC)c1OC` [8h] yielded an IC50 ([1]; Homo sapiens, MCF7) greater than 30 µM and an IC50 ([2]; Homo sapiens, A549) greater than 30 µM.
Work on `COc1cc(N(Cc2ccc(Cl)cc2)S(=O)(=O)c2cccc3ccccc23)cc(OC)c1OC` [8e] yielded an IC50 ([1]; Homo sapiens, MCF7) of 15.6 ± 0.34 µM and an IC50 ([2]; Homo sapiens, A549) of 14.4 ± 0.8 µM.
Molecule `COc1cc(N(Cc2ccc(C)cc2)S(=O)(=O)c2cccc3ccccc23)cc(OC)c1OC` [8b] has an IC50 ([1]; Homo sapiens, MCF7) of 2.2 ± 0.19 µM and an IC50 ([2]; Homo sapiens, A549) of 1.29 ± 0.19 µM.
`COc1cccc(CN(c2cc(OC)c(OC)c(OC)c2)S(=O)(=O)c2cccc3ccccc23)c1` [8a] showed an IC50 ([1]; Homo sapiens, MCF7) of 20 ± 0.71 µM and an IC50 ([2]; Homo sapiens, A549) greater than 30 µM.
For `COc1ccc(CN(c2cc(OC)c(OC)c(OC)c2)S(=O)(=O)c2ccc3ccccc3c2)cc1` [5d], the IC50 ([1]; Homo sapiens, MCF7) was 5.72 ± 0.18 µM and the IC50 ([2]; Homo sapiens, A549) was greater than 30 µM.
For `COc1cc(N(Cc2ccccc2[N+](=O)[O-])S(=O)(=O)c2cccc3ccccc23)cc(OC)c1OC` [8i], the IC50 ([1]; Homo sapiens, MCF7) was greater than 30 µM and the IC50 ([2]; Homo sapiens, A549) was 4.76 ± 0.31 µM.
